Values after ≈ are worked out from the molar mass of the structure shown. Values joined by “and” are separate entries in the source; they are usually repeats but may differ in a detail not shown here. Identical values can stand only once. Like-named read-outs stand apart in the source and are kept apart here.
What was measured:
E. coli O-157:H7 = test: Minimum inhibitory concentration (MIC) against E. coli O-157:H7 strains by agar dilution method; assay type: cell-based; settings: for MIC50 / MIC90: Escherichia coli, 18 h, 20 strains
Verotoxins (VT1 and VT2) = assay type: cell-based, E. coli O-157:H7; settings: concentration greater than MIC; compared with untreated E. coli
VT2 [1] = assay type: cell-based, E. coli O-157:H7; settings: 3h; for VT2 released: control 0h <2, control 3h 8; for VT2 intracellular: control 0h <2, control 3h 16; for VT2 released, ratio to control at 0h: control 3h ratio 8; for VT2 intracellular, ratio to control at 0h: control 3h ratio 16
VT1 [2] = assay type: cell-based, E. coli O-157:H7; settings: 3h; for VT1 released: control 0h <2, control 3h 2; for VT1 released, ratio to control at 0h: control 3h ratio 2; for VT1 intracellular, ratio to control at 0h: control 3h ratio 32
E. coli O-157 [3] = test: Viable cells in the cecum of mice infected with E. coli O-157; assay type: in vivo, E. coli FP1962 in DBA/2 mice; settings: for Number of cells in cecum, individual mouse / Number of cells in cecum, mean: day 6; for Number of cells in cecum, individual mouse: DBA/2 mice; for Number of cells in cecum, mean: control mean 3.4 × 10^7
VT2 [4] = test: Amount of VT2 in cecum of mice infected with E. coli O-157 (VTEC-RPLA); assay type: in vivo, E. coli FP1962 in DBA/2 mice; settings: day 6
VT1 [5] = test: Amount of VT1 in cecum of mice infected with E. coli O-157 (VTEC-RPLA); assay type: in vivo, E. coli FP1962 in DBA/2 mice; settings: day 6
verotoxins = tested on: verotoxins; design: species or system E. coli FP1962 in DBA/2 mice; settings: mouse, in vivo, po
E. coli O-157 [6] = test: Death of mice infected with E. coli O-157; assay type: in vivo, E. coli FP1962 in DBA/2 mice; settings: 10 mg/kg/dose orally twice a day for 4 days
[7] = 32 mg/kg/dose orally twice a day for 4 days
[8] = 10 mg/kg/dose orally twice a day for 4 days

Row | Structure (SMILES) | MIC50 (E. coli O-157:H7; aerobic) [µg/mL] | MIC90 (E. coli O-157:H7; aerobic) [µg/mL] | MIC50 (E. coli O-157:H7; anaerobic) [µg/mL] | MIC90 (E. coli O-157:H7; anaerobic) [µg/mL] | production and release of verotoxins (Verotoxins (VT1 and VT2)) | VT2 released (VT2 [1]; 10 μg/ml) [maximum dilution times] | VT2 intracellular (VT2 [1]; 10 μg/ml) [maximum dilution times] | VT2 released, ratio to control at 0h (VT2 [1]; 10 μg/ml) | VT2 intracellular, ratio to control at 0h (VT2 [1]; 10 μg/ml) | VT1 released (VT1 [2]; 10 μg/ml) [maximum dilution times] | VT1 released, ratio to control at 0h (VT1 [2]; 10 μg/ml) | VT1 intracellular, ratio to control at 0h (VT1 [2]; 10 μg/ml) | Number of cells in cecum, individual mouse (E. coli O-157 [3]; [7]) | Number of cells in cecum, mean (E. coli O-157 [3]; [7]) | Amount of VT2 in cecum, individual mouse (VT2 [4]; [7]) | Amount of VT1 in cecum, individual mouse (VT1 [5]; [7]) | further results
1 | CC1(C)S[C@@H]2[C@H](NC(=O)[C@H](N)c3ccc(O)cc3)C(=O)N2[C@H]1C(=O)O [AMX, Amoxicillin] | 3.13 (≈ 8.57 µM) | 6.25 (≈ 17.1 µM) | 1.56 (≈ 4.27 µM) | 3.13 (≈ 8.57 µM) | both production and release of verotoxins increased much more than those with an untreated E. coli | 8 | 4 | 8 | 4 | ≥ 256 | ≥ 256 | 32 |  |  |  |  | MIC distribution: number of strains with MIC 1.56 μg/ml (E. coli O-157:H7): 14 strains; MIC distribution: number of strains with MIC 6.25 μg/ml (E. coli O-157:H7): 2 strains; MIC distribution: number of strains with MIC >100 μg/ml (E. coli O-157:H7; aerobic, 20 strains tested): 1 strains; MIC distribution: number of strains with MIC >100 μg/ml (E. coli O-157:H7; anaerobic, 20 strains tested): 1 strains; VT1 intracellular (VT1 [2]; 10 μg/ml, control 0h 2, control 3h 64): 64 maximum dilution times
2 | C=C1CCO[C@]2([C@@H](O)[C@@](C)(O)CO)NC(=O)[C@@]1(O)NC2=O [BCM, Bicozamycin] | 25 (≈ 82.7 µM) | 25 (≈ 82.7 µM) | 12.5 (≈ 41.4 µM) | 25 (≈ 82.7 µM) | increases in production and release of verotoxins were dramatically suppressed | 2 | 4 | 2 | 4 | 8 | 8 | 16 | 4.5 × 10^3 cfu/site and 1.0 × 10^2 cfu/site and 8.5 × 10^3 cfu/site and 3.5 × 10^3 cfu/site and 1.0 × 10^5 cfu/site | 2.2 × 10^3 cfu/site | < 2 titer and 2 titer | < 2 titer | antimicrobial activity against VTEC (E. coli O-157 [3]; infected mice, 32 mg/kg/dose orally): showed an antimicrobial activity against VTEC; MIC distribution: number of strains with MIC 25 μg/ml (E. coli O-157:H7; aerobic, 20 strains tested): 20 strains; MIC distribution: number of strains with MIC 12.5 μg/ml (E. coli O-157:H7; anaerobic, 20 strains tested, MIC 12.5 μg/ml): 15 strains; MIC distribution: number of strains with MIC 25 μg/ml (E. coli O-157:H7; anaerobic, 20 strains tested): 5 strains; VT2 released (VT2 [1]; 25 μg/ml): < 2 maximum dilution times; VT2 intracellular (VT2 [1]; 25 μg/ml): < 2 maximum dilution times; VT2 released, ratio to control at 0h (VT2 [1]; 25 μg/ml): 1; VT2 intracellular, ratio to control at 0h (VT2 [1]; 25 μg/ml): 1; VT2 released (VT2 [1]; 100 μg/ml): < 2 maximum dilution times; VT2 intracellular (VT2 [1]; 100 μg/ml): < 2 maximum dilution times; VT2 released, ratio to control at 0h (VT2 [1]; 100 μg/ml): 1; VT2 intracellular, ratio to control at 0h (VT2 [1]; 100 μg/ml): 1; VT1 released (VT1 [2]; 25 μg/ml): 8 maximum dilution times; VT1 released, ratio to control at 0h (VT1 [2]; 25 μg/ml): 8; VT1 intracellular, ratio to control at 0h (VT1 [2]; 25 μg/ml): 1; VT1 released (VT1 [2]; 100 μg/ml): 8 maximum dilution times; VT1 released, ratio to control at 0h (VT1 [2]; 100 μg/ml): 8; VT1 intracellular, ratio to control at 0h (VT1 [2]; 100 μg/ml): 1; production and release of verotoxins (verotoxins): suppressed the production and release of verotoxins
3 | CC[C@H]1OC(=O)[C@H](C)[C@@H](O[C@H]2C[C@@](C)(OC)[C@@H](O)[C@H](C)O2)[C@H](C)[C@@H](O[C@@H]2O[C@H](C)C[C@H](N(C)C)[C@H]2O)[C@](C)(OC)C[C@@H](C)C(=O)[C@H](C)[C@@H](O)[C@]1(C)O [CAM, clathromycin] |  |  |  |  |  |  |  |  |  |  |  |  | 2.4 × 10^7 cfu/site and 7.9 × 10^7 cfu/site and 1.0 × 10^8 cfu/site and 1.3 × 10^8 cfu/site and 7.0 × 10^6 cfu/site and 4.1 × 10^8 cfu/site | 6.5 × 10^7 cfu/site | 2 titer and 4 titer and < 2 titer and 8 titer | 2 titer and 4 titer | 
4 | C[C@@H]1O[C@@H]1P(=O)(O)O [FOM, fosfomycin] |  |  |  |  |  |  |  |  |  |  |  |  | 7.1 × 10^5 cfu/site and 3.0 × 10^4 cfu/site and 1.2 × 10^8 cfu/site and 4.6 × 10^7 cfu/site and 9.8 × 10^6 cfu/site and 4.9 × 10^7 cfu/site | 6.2 × 10^6 cfu/site | < 2 titer and 32 titer and 4 titer and 16 titer | < 2 titer | 
5 | CCn1cc(C(=O)O)c(=O)c2cc(F)c(N3CCNCC3)cc21 [NFLX, norfloxacin] |  |  |  |  |  |  |  |  |  |  |  |  |  |  |  |  | Number of cells in cecum, individual mouse (E. coli O-157 [3]; [8]): 6.9 × 10^5 cfu/site; Number of cells in cecum, mean (E. coli O-157 [3]; [8]): 6.9 × 10^5 cfu/site; Amount of VT2 in cecum, individual mouse (VT2 [4]; [8]): 16 titer; Amount of VT1 in cecum, individual mouse (VT1 [5]; [8]): 2 titer; death, individual mouse (E. coli O-157 [6]): died; tested mice that died due to increased verotoxins (E. coli O-157 [6]): Five of 6

From patent publication US6328989A, “Use of bicozamycin for the manufacture of a medicament for treating infections with enterohemorrhagic e. coli” (Fujisawa Pharmaceutical Co., Ltd., priority 1997, dated 2001)
